The conditions of data set [1]: International Agency for Research on Cancer classification; cited from earlier work.
Data set [2] is described as follows: Pharmacokinetic study in rat plasma after oral administration of Asarum essential oil extracts (GC-MS). The class given is in vivo, Sprague–Dawley rats. The conditions noted are these: oral Asarum extracts 20 g/kg; for MRT / Cmax / half-life / AUC(0-inf) / AUC(0-t) / Tmax / MRT last / MRT inf: male, Sprague-Dawley, in vivo; for MRT: 0−t or 0−∞ not specified, read-out: mean residence time; for Cmax: as stated in text without unit; for half-life: elimination half-life; for half-life / AUC(0-inf) / AUC(0-t) / Tmax / MRT last / MRT inf: n = 6, mean ± SD; for MRT last: read-out: MRT(0 − t); for MRT inf: read-out: MRT(0 − ∞). The procedure: The GC–MS system (Shimadzu GC-MS QP-2010 Ultrasystem) was coupled with an AOC-20i autosampler. The column used was a DB-17 capillary column (30 m × 0.25 mm × 0.25 μm film thickness). 99.99% high purity Helium was used as the carrier gas with a flow rate of 1.3 mL/min. The column temperature was programmed as follows: initial temperature 90°C, 20°C/min to 106°C, 30°C/min to 136°C, 40°C/min to 210°C, and finally 5.5°C/min to 214°C. The injection volume was 1 μL, and the injection temperature was 250°C.
The MS data were acquired in the electron-impact mode, and the SIM mode was used for quantification. The three characteristic ions of safrole were 162.0, 131.0, and 104.0 and that of methyl eugenols were 178.0, 163.0, and 147.0 (ions in bold fonts were used for the quantification). The transfer line temperature was set at 250°C, and the ionization source temperature was set at 230°C. The total run time was 4.5 min with a solvent delay of 3 min.
100 μL plasma sample was incorporated with 10 μL n-hexane and 10 μL of IS (5 μg/mL) and vortexed for 30 seconds. 130 μL n-hexane was then added to the sample and vortex-mixed for 5 min. The samples were centrifuged (12,000 × g, 10 min, 4°C), and […] was injected for GC-MS analysis.
All animal protocols were approved by the Laboratory Animal Ethics Committee of Tianjin University Traditional Chinese Medicine (TCM-LAEC20190059). Six male Sprague–Dawley rats (body weight 240 ± 10 g) were fasted for 12 h prior to the study, with free access to water. The Asarum extracts were administered to rats orally at a dose of 20 g/kg. 0.5% CMC-Na aqueous solution was used to dissolve the Asarum extracts to a concentration of 2 g/mL suspension and stored at 4°C. Approximately 220 μL blood samples were collected from the suborbital vein into centrifuge tubes at 0, 0.08, 0.17, 0.5, 1, 2, 4, 6, 8, 10, 12, 24, 36, 48, and 60 h postadministration in rats. The plasma was separated by centrifugation at 4000 × g for 10 min immediately and frozen at -80°C until the time of analysis. The main program pharmacokinetic parameters were processed by Drug and Statistics 3.0 (Medical College of Wannan, China).

Data set [3] in a line: Stability of analytes in rat plasma (QC samples). The conditions noted are these: for Stability in plasma samples: all conditions studied: room temperature 4 h, three freeze-thaw cycles, auto-sampler 12 h, -80°C 7 days; for Measured concentration, three freeze-thaw cycles / Measured concentration, -80°C for 7 days / Measured concentration, auto-sampler for 12 h / Measured concentration, room temperature for 4 h: rat plasma, n = 6; for Measured concentration, three freeze-thaw cycles: freeze -20°C. Format: in vitro ADME. The procedure: The stability was evaluated under different condition with variable time and temperature including long-term stability (storing the QC samples at -80°C for 7 days), short-term stability (storing the QC samples at room temperature for 4 h), freeze/thaw stability (three freeze (-20°C) thaw cycles), and auto-sampler stability (incubating the spiked samples for 12 h in auto-sampler).

The mark [4] stands for this setting: high QC (spiked 12000 ng/mL safrole, 8000 ng/mL methyl eugenol).
Where [5] appears, read: low QC (spiked 120 ng/mL safrole, 80 ng/mL methyl eugenol).
Where [6] appears, read: medium QC (spiked 1200 ng/mL safrole, 800 ng/mL methyl eugenol).

In general, Cmax refers to the highest concentration seen after dosing. As a reminder, the half-life is the time needed for the level to fall by half in the phase considered. A low value points to rapid decline. In general, AUC(0-inf) refers to the area under the concentration-time curve extrapolated to infinity. A high value points to high exposure. Usually AUC(0-t) stands for exposure summed from dosing to a finite time, without extrapolation to infinity. The term Tmax denotes the time from dosing to the highest level. Turning to `C=CCc1ccc(OC)c(OC)c1` [Methyl eugenol], in data set [1], the IARC carcinogen group result is “group 2B carcinogen”. Also, in data set [2], the MRT worked out at 10.6 ± 0.63 h, the concentration peaked (Cmax) at 823 ± 124 ng/mL, the half-life is 3.67 ± 1.6 h and the total exposure AUC(0-inf) stood at 15300 ± 2790 ng·h/mL. Besides, in data set [2], the AUC(0-t) was determined as 15200 ± 2760 ng·h/mL, the time of peak concentration (Tmax) worked out at 6.67 ± 2.07 h, the MRT last was determined as 10.6 ± 0.63 h and the MRT inf turned out to be 10.6 ± 0.63 h. In data set [2], this compound displayed a completely metabolised after of 36 h. Also, in data set [3], the “Stability in plasma samples” value is “stable”. Further, in data set [3] (setting [4]), the “Measured concentration, three freeze-thaw cycles” value is recorded as 7287.0 ± 522.7 ng/mL; the “Measured concentration, -80°C for 7 days” value is listed as 7367.9 ± 638.7 ng/mL; the “Measured concentration, auto-sampler for 12 h” value came out at 7100.8 ± 230.4 ng/mL; the “Measured concentration, room temperature for 4 h” value (from here on “Measured concentration … for 4 h”) is reported as 7418.6 ± 62.9 ng/mL. Also, in data set [3] (setting [5]), the “Measured concentration, three freeze-thaw cycles” value is reported as 78.5 ± 6.5 ng/mL; the “Measured concentration, -80°C for 7 days” value came to 81.0 ± 5.2 ng/mL; the “Measured concentration, auto-sampler for 12 h” value was 73.9 ± 6.1 ng/mL; the “Measured concentration … for 4 h” value worked out at 89.6 ± 8.8 ng/mL. In data set [3] (setting [6]), the “Measured concentration, three freeze-thaw cycles” value is 708.5 ± 16.2 ng/mL; the “Measured concentration, -80°C for 7 days” value came to 749.8 ± 40.7 ng/mL; the “Measured concentration, auto-sampler for 12 h” value came out at 727.7 ± 6.0 ng/mL; the “Measured concentration … for 4 h” value is given as 751.7 ± 7.8 ng/mL.
With `C=CCc1ccc2c(c1)OCO2` [Safrole], the IARC carcinogen group entry in data set [1] is “group 2B carcinogen”. Moreover, in data set [2], the MRT was found to be 18.4 ± 0.64 h, the concentration peaked (Cmax) at 1980 ± 267 ng/mL, the half-life was 2.44 ± 2.72 h and the AUC(0-inf) was determined as 53000 ± 5260 ng·h/mL. Further, in data set [2], the AUC(0-t) was 53000 ± 5290 ng·h/mL, the Tmax is 13 ± 1.1 h, the MRT last worked out at 18.4 ± 0.64 h and the MRT inf came out at 18.4 ± 0.63 h. In addition, the “detectable in plasma samples after” value in data set [2] was 48 h. The “Stability in plasma samples” value in data set [3] is recorded as “stable”. Also, in data set [3] (setting [4]), the “Measured concentration, three freeze-thaw cycles” value is 12526.3 ± 331.5 ng/mL; the “Measured concentration, -80°C for 7 days” value was determined as 12741.7 ± 103.1 ng/mL; the “Measured concentration, auto-sampler for 12 h” value was determined as 12065.2 ± 210.7 ng/mL; the “Measured concentration … for 4 h” value is on record as 12751.7 ± 38.6 ng/mL. For the same compound, in data set [3] (setting [5]), the “Measured concentration, three freeze-thaw cycles” value came out at 137.0 ± 10.6 ng/mL; the “Measured concentration, -80°C for 7 days” value is on record as 135.1 ± 11.0 ng/mL; the “Measured concentration, auto-sampler for 12 h” value is 136.3 ± 11.8 ng/mL; the “Measured concentration … for 4 h” value is 132.5 ± 12.4 ng/mL. Moreover, in data set [3] (setting [6]), the “Measured concentration, three freeze-thaw cycles” value turned out to be 1319.7 ± 21.2 ng/mL; the “Measured concentration, -80°C for 7 days” value is reported as 1348.1 ± 41.4 ng/mL; the “Measured concentration, auto-sampler for 12 h” value is given as 1271.1 ± 3.3 ng/mL; the “Measured concentration … for 4 h” value is on record as 1306.7 ± 15.7 ng/mL.

The values above are taken from PMC8004375, “Pharmacokinetic Study of Safrole and Methyl Eugenol after Oral Administration of the Essential Oil Extracts of Asarum in Rats by GC-MS” (BioMed Research International, 2021).
